Here are results for eight compounds from patent US20220169654A1, “New Organic Compounds” (Servier Pharmaceuticals LLC, priority 2020, published 2022).

pIC50: −log10 of the molar value.

For one experiment, the target named is T1, MAT2A homodimer (Homo sapiens, UniProt P31153).
T1 construct: inferred from Ni sepharose purification with imidazole elution; made in house; host or cells: Sf9 insect cells, baculovirus (Bac to Bac, pFASTBAC1)
The experiment can be described thus: MAT2A inhibition (biochemical, liberated phosphate, PiColorLock Gold). The note with it: recombinant MAT2A homodimer; IC50 bin with Max Inh.; read-out: Enzyme Inhibition Bin. In outline:
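Baculovirus/Sf9-expressed, Ni-purified MAT2A (4 μg/mL) preincubated with compound 60 min at 25 °C in Tris pH 8.0/KCl/MgCl2 buffer. Reaction started with 500 μM ATP and 400 μM L-methionine (substrate-mix concentrations), run 60 min at 25 °C. Phosphate measured colorimetrically against a phosphate standard curve to give IC50.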

Experiment [1] deals with SAM in HCT116 human colon carcinoma cell line with MTAP gene deleted (MTAP −/−). The experiment is described as follows: Cellular assay of target engagement (SAM), LC-MS/MS, 72 hrs. The format is cell-based. The note with it: HCT-116, IC50 bin with Max Inh., read-out: Cell 72 h SAM Inhibition (MTAP −/−). In outline:
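MTAP-deleted HCT116 cells plated 24 h, then given 10-point 3-fold dilutions for 72 hrs at 37° C. Intracellular SAM extracted in cold 80% methanol with 1M acetic acid and d3-SAM standard, quantified by LC-MS/MS (MRM m/z 399.2→250.1); IC50 derived.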

Another experiment deals with HCT116 MTAP−/−. The experiment can be described thus: Inhibition of cellular proliferation, 4 days, Cell Titer Glo, HCT116 MTAP−/−. The note with it: Homo sapiens, HCT-116, 96 h, IC50 bin with Max Inh., read-out: 4 Day Relative Growth Inhibition (MTAP −/−). The format is cell-based. The method, boiled down:
(§1)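 Isogenic HCT116 pair differing only in MTAP status, plated 24 h before treatment with 10-point 3-fold dilutions; 4 days at 37° C./5% CO2. Cell Titer Glo luminescence, blank-subtracted and normalised to 0.2% DMSO control, gives percentage proliferation vs log molar concentration for IC50.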
On the technique in general: Cellular ATP, detected with luciferase, serves as a proxy for viable cell number.

For a further experiment, the system named is HCT116 MTAP+/+. The experiment can be described thus: Inhibition of cellular proliferation, 4 days, Cell Titer Glo, HCT116 MTAP+/+. The format is cell-based. The note with it: Homo sapiens, HCT-116, 96 h, IC50 bin with Max Inh., read-out: 4 Day Relative Growth Inhibition (MTAP +/+). The method, boiled down: as §1

T1 sequence (P31153 whole entry): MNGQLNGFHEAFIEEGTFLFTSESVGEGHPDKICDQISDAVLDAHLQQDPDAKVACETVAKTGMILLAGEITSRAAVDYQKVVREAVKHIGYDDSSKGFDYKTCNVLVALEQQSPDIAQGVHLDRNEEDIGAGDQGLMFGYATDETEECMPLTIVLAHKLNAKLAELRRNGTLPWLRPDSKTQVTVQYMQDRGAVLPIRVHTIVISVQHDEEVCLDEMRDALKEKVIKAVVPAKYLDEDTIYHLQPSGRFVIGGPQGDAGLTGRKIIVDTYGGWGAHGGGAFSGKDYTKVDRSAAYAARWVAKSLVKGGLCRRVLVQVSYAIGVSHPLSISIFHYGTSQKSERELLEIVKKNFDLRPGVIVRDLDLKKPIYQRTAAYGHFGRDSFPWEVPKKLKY

With `Cc1nc2ccc(-n3nc4c(C#N)cn(CC5CC5)c4c(-c4ccc(C5CC5)nc4)c3=O)cc2n1C` [Example 148, 5-(cyclopropylmethyl)-4-(6-cyclopropylpyridin-3-yl)-2-(1,2-dimethyl-1H-benzo[d]imidazol-6-yl)-3-oxo-3,5-dihydro-2H-pyrrolo[3,2-c]pyridazine-7-carbonitrile], the pIC50 (on MAT2A homodimer; in experiment [1]; with HCT116 MTAP−/−; with HCT116 MTAP+/+) was over 7.00 each time.
Consider `Cn1cc2cc(-n3nc4c(C#N)cn(CC5CC5)c4c(-c4ccc(C#N)cc4)c3=O)ccc2n1` [Example 149, 4-(4-cyanophenyl)-5-(cyclopropylmethyl)-2-(2-methyl-2H-indazol-5-yl)-3-oxo-3,5-dihydro-2H-pyrrolo[3,2-c]pyridazine-7-carbonitrile], for which the pIC50 at MAT2A homodimer was over 7.00; in experiment [1], 6.00 to 7.00; in the experiment with HCT116 MTAP−/−, 6.00 to 7.00; with HCT116 MTAP+/+, under 6.00.
For the compound `Cn1cc2cc(-n3nc4ccn(CC5CC5)c4c(-c4ccc(C5CC5)cc4)c3=O)ccc2n1` [Example 150, 5-(cyclopropylmethyl)-4-(4-cyclopropylphenyl)-2-(2-methyl-2H-indazol-5-yl)-2,5-dihydro-3H-pyrrolo[3,2-c]pyridazin-3-one], the pIC50 at MAT2A homodimer was over 7.00; in experiment [1], over 7.00; with HCT116 MTAP−/−, over 7.00; in the experiment with HCT116 MTAP+/+, under 6.00.
Take `Cc1ccc(-c2c(=O)n(-c3ccc4nc(C)n(C)c4c3)nc3c(C#N)cn(CC4CC4)c23)cn1` [Example 151, 5-(cyclopropylmethyl)-2-(1,2-dimethyl-1H-benzo[d]imidazol-6-yl)-4-(6-methylpyridin-3-yl)-3-oxo-3,5-dihydro-2H-pyrrolo[3,2-c]pyridazine-7-carbonitrile]: the pIC50 on MAT2A homodimer is over 7.00; in experiment [1], over 7.00; in the experiment with HCT116 MTAP−/−, over 7.00; with HCT116 MTAP+/+, under 6.00.
Regarding `CCc1ccc(-c2c(=O)n(-c3ccc4nc(C)n(C)c4c3)nc3c(C#N)cn(CC4CC4)c23)cn1` [Example 152, 5-(cyclopropylmethyl)-2-(1,2-dimethyl-1H-benzo[d]imidazol-6-yl)-4-(6-ethylpyridin-3-yl)-3-oxo-3,5-dihydro-2H-pyrrolo[3,2-c]pyridazine-7-carbonitrile], the pIC50 on MAT2A homodimer was over 7.00; in experiment [1], over 7.00; in the experiment with HCT116 MTAP−/− it was over 7.00; with HCT116 MTAP+/+, under 6.00.
Turning to `Cn1cc2cc(-n3nc4ccn(CC5CC5)c4c(-c4ccc(C#N)nc4)c3=O)ccc2n1` [Example 153, 5-(5-(cyclopropylmethyl)-2-(2-methyl-2H-indazol-5-yl)-3-oxo-3,5-dihydro-2H-pyrrolo[3,2-c]pyridazin-4-yl)picolinonitrile], the pIC50 on MAT2A homodimer is 6.00 to 7.00; in experiment [1], 6.00 to 7.00; in the experiment with HCT116 MTAP−/−, under 6.00; with HCT116 MTAP+/+ it was under 6.00.
Consider `Cn1cc2cc(-n3nc4ccn(CC5CC5)c4c(-c4ccc(C#N)cc4)c3=O)ccc2n1` [Example 154, 4-(5-(cyclopropylmethyl)-2-(2-methyl-2H-indazol-5-yl)-3-oxo-3,5-dihydro-2H-pyrrolo[3,2-c]pyridazin-4-yl)benzonitrile], for which the pIC50 was over 7.00 at MAT2A homodimer, 6.00 to 7.00 in experiment [1], 6.00 to 7.00 in the experiment on HCT116 MTAP−/− and 6.00 to 7.00 with HCT116 MTAP+/+.
With `Cn1cc2cc(-n3nc4ccn(CC5CC5)c4c(-c4ccc(C(N)=O)nc4)c3=O)ccc2n1` [Example 155, 5-(5-(cyclopropylmethyl)-2-(2-methyl-2H-indazol-5-yl)-3-oxo-3,5-dihydro-2H-pyrrolo[3,2-c]pyridazin-4-yl)picolinamide], the pIC50 at MAT2A homodimer was over 7.00; in experiment [1] it was 6.00 to 7.00; in the experiment on HCT116 MTAP−/− it was 6.00 to 7.00; in the experiment on HCT116 MTAP+/+, under 6.00.
